From PubChem BioAssay (NCI)
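Briefly, cells in 96-well plates were exposed to five compound concentrations for 48 h, and endpoints were estimated by linear interpolation. Abbreviation: GI50, concentration required for 50% inhibition of growth. Definition used: TGI = concentration required for complete inhibition of growth.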

Experiments:
Test in all cases: NCI tumour cell line growth inhibition, 48 h
[1] = tested on: MALME-3M melanoma
[2] = tested on: MCF7 breast
[3] = tested on: HCT-15 colon
[4] = tested on: BT-549 breast
[5] = tested on: A549 NSCLC
[6] = tested on: UACC-257 melanoma
[7] = tested on: SN12C renal
[8] = tested on: COLO 205 colon
[9] = tested on: CCRF-CEM leukemia
[10] = tested on: SK-MEL-2 melanoma
[11] = tested on: HS 578T breast
[12] = tested on: EKVX NSCLC
[13] = tested on: U251 CNS
[14] = tested on: M14 melanoma
[15] = tested on: HCT-116 colon
[16] = tested on: MDA-MB-231 breast
[17] = tested on: KM12 colon
[18] = tested on: SF-295 CNS
[19] = tested on: OVCAR-5 ovarian
[20] = tested on: HT29 colon
[21] = tested on: SF-268 CNS
[22] = tested on: TK-10 renal
[23] = tested on: SK-OV-3 ovarian
[24] = tested on: OVCAR-4 ovarian
[25] = tested on: SK-MEL-5 melanoma
[26] = tested on: UACC-62 melanoma
[27] = tested on: RXF 393 renal
[28] = tested on: MOLT-4 leukemia
[29] = tested on: SF-539 CNS
[30] = tested on: NCI/ADR-RES ovarian
[31] = tested on: 786-0 renal
[32] = tested on: HOP-92 NSCLC
[33] = tested on: OVCAR-3 ovarian
[34] = tested on: NCI-H226 lung
[35] = tested on: HCC-2998 colon
[36] = tested on: RPMI-8226 leukemia
[37] = tested on: ACHN renal
[38] = tested on: SW-620 colon
[39] = tested on: MDA-MB-435
[40] = tested on: NCI-H23 lung
[41] = tested on: NCI-H460 lung
[42] = tested on: A498 renal
[43] = tested on: UO-31 renal
[44] = tested on: K-562 leukemia
[45] = tested on: SR leukemia
[46] = tested on: SK-MEL-28 melanoma
[47] = tested on: LOX IMVI melanoma
[48] = tested on: SNB-19 CNS
[49] = tested on: HOP-62 NSCLC
[50] = tested on: OVCAR-8 ovarian
[51] = tested on: HL-60(TB) leukemia
[52] = tested on: CAKI-1 renal
[53] = tested on: T-47D breast
[54] = tested on: DU-145 prostate
[55] = tested on: IGROV1 ovarian
[56] = tested on: NCI-H522 lung
[57] = tested on: SNB-75 CNS
[58] = tested on: PC-3 prostate

Structure (SMILES): Nc1ccc(-c2nc3ccc4[nH]ncc4c3c3c2CCCC3)cc1F
- GI50 [1]: 1.74 µM
- TGI [1]: 6.98 µM
- GI50 [2]: 1.09 µM
- TGI [2]: 8.92 µM
- GI50 [3]: 0.691 µM
- TGI [3]: 8.05 µM
- GI50 [4]: 1.28 µM
- TGI [4]: 7 µM
- GI50 [5]: 1.04 µM
- TGI [5]: 9.54 µM
- GI50 [6]: 1.92 µM
- TGI [6]: 10.7 µM
- GI50 [7]: 1.96 µM
- TGI [7]: 13.2 µM
- GI50 [8]: 1.42 µM
- TGI [8]: 6.77 µM
- GI50 [9]: 1.5 µM
- TGI [9]: 12.2 µM
- GI50 [10]: 1.27 µM
- TGI [10]: 6.19 µM
- GI50 [11]: 1.05 µM
- TGI [11]: 3.91 µM
- GI50 [12]: 0.215 µM
- TGI [12]: 3.92 µM
- GI50 [13]: 1.29 µM
- TGI [13]: 8.95 µM
- GI50 [14]: 0.686 µM
- TGI [14]: 6.92 µM
- GI50 [15]: 0.6 µM
- TGI [15]: 5.99 µM
- GI50 [16]: 1.71 µM
- TGI [16]: 30.5 µM
- GI50 [17]: 1.11 µM
- TGI [17]: 6.3 µM
- GI50 [18]: 2.85 µM
- TGI [18]: 11.1 µM
- GI50 [19]: 2.42 µM
- TGI [19]: 23 µM
- GI50 [20]: 1.53 µM
- TGI [20]: 18.5 µM
- GI50 [21]: 1.76 µM
- TGI [21]: 19.2 µM
- GI50 [22]: 0.828 µM
- TGI [22]: 22.4 µM
- GI50 [23]: 0.367 µM
- TGI [23]: 2.77 µM
- GI50 [24]: 1.69 µM
- TGI [24]: 23.5 µM
- GI50 [25]: 0.986 µM
- TGI [25]: 4.53 µM
- GI50 [26]: 1.19 µM
- TGI [26]: 6.71 µM
- GI50 [27]: 0.36 µM
- TGI [27]: 2 µM
- GI50 [28]: 1.27 µM
- TGI [28]: 5.82 µM
- GI50 [29]: 1.38 µM
- TGI [29]: 5.85 µM
- GI50 [30]: 1.86 µM
- TGI [30]: 16.6 µM
- GI50 [31]: 1.6 µM
- TGI [31]: 10.3 µM
- GI50 [32]: 1.7 µM
- TGI [32]: 11.2 µM
- GI50 [33]: 1.89 µM
- TGI [33]: 18.5 µM
- GI50 [34]: 0.686 µM
- TGI [34]: 5.5 µM
- GI50 [35]: 3.04 µM
- TGI [35]: 12.3 µM
- GI50 [36]: 0.842 µM
- TGI [36]: 7.37 µM
- GI50 [37]: 0.316 µM
- TGI [37]: 15.5 µM
- GI50 [38]: 0.907 µM
- TGI [38]: 7.52 µM
- GI50 [39]: 1.38 µM
- TGI [39]: 5.61 µM
- GI50 [40]: 1.54 µM
- TGI [40]: 7.96 µM
- GI50 [41]: 0.959 µM
- TGI [41]: 8.51 µM
- GI50 [42]: 0.636 µM
- TGI [42]: 3.24 µM
- GI50 [43]: 1.01 µM
- TGI [43]: 5.53 µM
- GI50 [44]: 1.98 µM
- TGI [44]: 22.8 µM
- GI50 [45]: 1.12 µM
- TGI [45]: 9.1 µM
- GI50 [46]: 1.81 µM
- TGI [46]: 6.86 µM
- GI50 [47]: 2 µM
- TGI [47]: 7.8 µM
- GI50 [48]: 2.48 µM
- TGI [48]: 32.1 µM
- GI50 [49]: 1.67 µM
- TGI [49]: 16.9 µM
- GI50 [50]: 1.57 µM
- TGI [50]: 21.6 µM
- GI50 [51]: 1.24 µM
- TGI [51]: 3.42 µM
- GI50 [52]: 0.323 µM
- TGI [52]: 3.64 µM
- GI50 [53]: 1.2 µM
- TGI [53]: 7.77 µM
- GI50 [54]: 1.46 µM
- TGI [54]: 20.2 µM
- GI50 [55]: 0.407 µM
- TGI [55]: 11.2 µM
- GI50 [56]: 0.989 µM
- TGI [56]: 6.93 µM
- GI50 [57]: 1.35 µM
- TGI [57]: 3.42 µM

Structure (SMILES): COc1ccc(/C=C/c2cc(O)cc(OC)c2)cc1
- TGI [1]: > 100 µM
- TGI [2]: > 100 µM
- TGI [3]: 14.4 µM
- TGI [4]: > 100 µM
- TGI [5]: > 100 µM
- TGI [6]: > 100 µM
- TGI [7]: > 100 µM
- TGI [8]: > 100 µM
- TGI [10]: > 100 µM
- TGI [11]: > 100 µM
- TGI [12]: > 100 µM
- TGI [13]: > 100 µM
- TGI [14]: > 100 µM
- TGI [15]: > 100 µM
- TGI [16]: > 100 µM
- TGI [17]: > 100 µM
- TGI [18]: > 100 µM
- TGI [19]: > 100 µM
- TGI [20]: > 100 µM
- TGI [21]: > 100 µM
- TGI [22]: > 100 µM
- TGI [23]: > 100 µM
- TGI [24]: > 100 µM
- TGI [25]: > 100 µM
- TGI [26]: > 100 µM
- TGI [27]: > 100 µM
- TGI [28]: > 100 µM
- TGI [29]: > 100 µM
- TGI [30]: > 100 µM
- TGI [31]: > 100 µM
- TGI [32]: > 100 µM
- TGI [33]: > 100 µM
- TGI [34]: > 100 µM
- TGI [36]: 78.7 µM
- TGI [37]: > 100 µM
- TGI [38]: > 100 µM
- TGI [39]: > 100 µM
- TGI [40]: > 100 µM
- TGI [41]: > 100 µM
- TGI [42]: > 100 µM
- TGI [43]: > 100 µM
- TGI [44]: > 100 µM
- TGI [58]: > 100 µM
- TGI [45]: > 100 µM
- TGI [46]: > 100 µM
- TGI [48]: > 100 µM
- TGI [49]: > 100 µM
- TGI [50]: > 100 µM
- TGI [51]: > 100 µM
- TGI [52]: > 100 µM
- TGI [53]: > 100 µM
- TGI [54]: > 100 µM
- TGI [55]: > 100 µM
- TGI [56]: > 100 µM
- TGI [57]: > 100 µM
